Measured values reported in patent US20080146540A1, “Methods of diagnosis and treatment for asthma, allergic rhinitis and other respiratory diseases based on haplotype association” (priority 2003, published 2008).

Columns and labels:
Assay type in all cases: in vivo, human
[1] = tested on: asthma patients; test: Phase II clinical study CEP-1347-201: spirometry FEV/FVC; settings: patients with near normal lung function at baseline
From the text: The overall mean baseline percent predicted FEV1 (forced expiratory […] in 1 second) and FEV1 values for the study were 96% and 2.9 liters, respectively.

[2] = tested on: asthma patients; test: Phase II clinical study CEP-1347-201: peak expiratory flow rate (PEFR; ANCOVA at week 8 and longitudinal model of daily PEFR); settings: for PEFR Change from Baseline at Week 8, LS Mean: ANCOVA; for Mean model predicted PEFR adjusted for baseline percent predicted PEFR, mean: morning PEFR
From the text: Two analyses of PEFR were pre-specified in the SAP, an ANCOVA analysis of the change from baseline at week 8 and a model based longitudinal analysis of the daily PEFR measurements. Results from an ANCOVA (analysis of covariance) including treatment group as a factor and the baseline value as a covariate are presented in Table 19. The ANCOVA results reported in Table 19 were limited to change from baseline at week 8 PEFR measurements from office based spirometry assessments. Patients were also instructed to perform peak flow rate assessments at home, once in the morning and once in the evening using a hand-held peak flow device. PEFR measures were then recorded by the patient into a diary. A total of 6878 morning (5 am-12 noon) observations were collected from 149 patients during the treatment phase of the study (56 days in duration) corresponding to approximately 46.2 observations per subject. […] The endpoint used in this analysis was change from baseline in morning PEFR. While the model based analysis can be difficult to understand, this approach takes advantage of the rich daily PEFR data set (6878 observations) whereas the ANCOVA was limited to the week 8 PEFR (146 observations). The model included a placebo and treatment component. […] This common phenomenon is typically referred to as “regression to the mean”. In addition, the onset of this placebo effect appeared to occur over time. Therefore, a rate constant was added to the model to account for the change in placebo effect over time. […] Placeboss=θ(1)+η(1)+θ(9)*baseline % predicted PEFR (Eq. 3) Placebot=Placeboss*(1-exp(-θ(5)*DAY)) (Eq. 4) […] To allow for a less than immediate CEP-1347 effect, a rate constant controlling the onset of treatment effect was also included in the treatment model. In addition, it was assumed that the ability of a patient to responds to drug treatment was proportional to the patients baseline % predicted PEFR. In other words, patients with normal lung function at baseline would be expected to have little effect whereas those with poor lung function at baseline would be expected to have a larger effect. This model component is similar to a treatment by baseline interaction in an ANCOVA analysis. Equation describes the treatment time course model: […]=θ(n)*ROOM*(1-(-exp(-θ(10)*DAY)) (Eq. 5) Where, […] the treatment effect at time t adjusted for the patient's baseline % predicted PEFR and duration of drug therapy, θ(n) is the fixed effect associated with n treatment group; either 10, 25, or 50 mgBID treatment groups, ROOM scales the magnitude of the treatment effect based on the baseline % predicted PEFR (i.e., 1-baseline predicted; baseline by treatment interaction), θ(10) is the rate constant governing the onset of treatment effect. The overall effect at time t combines the placebo component and the drug component (Equation 6): […]=Placebot+Treatment1+ε(1) (Eq. 6) […] Model selection was done in the same manner as described for the MCT analysis. In addition, a randomization test was undertaken to more accurately determine the p value comparing the full model (run #14 included a treatment component) to the reduced model (run #5; placebo model only). […] The 5th and 95th percentiles for the predicted values were identified from the pool of predicted values to establish a 90% prediction interval around the mean model prediction (Table 21).

[3] = tested on: asthma patients; test: as above; settings: p=0.15; dose-response shape very similar to morning PEFR

CCSCc1ccc2c(c1)c1c3c(c4c5cc(CSCC)ccc5n5c4c1n2C1CC(O)(C(=O)OC)C5(C)O1)CNC3=O (stereo not drawn) [CEP-1347]
FEV/FVC (ANCOVA) [1]: no clear treatment related trends or statistically significant changes | PEFR Change from Baseline at Week 8, LS Mean ([2]; 10 mg BID, p 0.30): 0.01 | PEFR Change from Baseline at Week 8, LS Mean ([2]; 25 mg BID, p 1.0): 0.03 | PEFR Change from Baseline at Week 8, LS Mean ([2]; 50 mg BID, p 0.77): 0.04 | daily morning PEFR change from baseline, longitudinal mixed effects model with CEP-1347 treatment component vs placebo only model ([2]; 10, 25, 50 mg BID, 56 days, p=0.012): statistically significant improvement in the description of the data | Mean model predicted PEFR adjusted for baseline percent predicted PEFR, mean ([2]; Dose 20, BL % pred PEF 70): 19.3 | Mean model predicted PEFR adjusted for baseline percent predicted PEFR, mean ([2]; Dose 20, BL % pred PEF 80): 16.6 | Mean model predicted PEFR adjusted for baseline percent predicted PEFR, mean ([2]; Dose 20, BL % pred PEF 96): 12.2 | Mean model predicted PEFR adjusted for baseline percent predicted PEFR, mean ([2]; Dose 50, BL % pred PEF 70): 38.6 | Mean model predicted PEFR adjusted for baseline percent predicted PEFR, mean ([2]; Dose 50, BL % pred PEF 80): 29.4 | Mean model predicted PEFR adjusted for baseline percent predicted PEFR, mean ([2]; Dose 50, BL % pred PEF 96): 14.8 | Mean model predicted PEFR adjusted for baseline percent predicted PEFR, mean ([2]; Dose 100, BL % pred PEF 70): 99.5 | Mean model predicted PEFR adjusted for baseline percent predicted PEFR, mean ([2]; Dose 100, BL % pred PEF 80): 70.0 | Mean model predicted PEFR adjusted for baseline percent predicted PEFR, mean ([2]; Dose 100, BL % pred PEF 96): 22.9 | daily evening PEFR, CEP-1347 effect in longitudinal model [3]: borderline significant
